# Test: gradient 5% acetonitrile 3 min, to 50% in 2 min, to 85% in 15 min, held 3 min, 100 µL/min
# Details: column: Zorbax Extend-C18 2.1 x 50 mm; eluents: water / acetonitrile, 0.1% formic acid
# Method in brief: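 Using water and acetonitrile that each contained 0.1% formic acid, mixtures of ~100 pure standards were separated at 100 μL/min on a Zorbax Extend-C18 column (2.1 × 50 mm, 1.8 μm). The HPLC fed a quadrupole time-of-flight mass spectrometer working in positive and negative ionization mode, with dead and dwell volumes of 40 μL and 900 μL. Data were acquired over 3 months. Retention time was read from computationally picked adduct peaks after manual inspection of each.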
row,RP-LC retention time [s],Structure (SMILES)
1,569,CCN1CCN(C(=O)c2c(OCC3CC3)cc(=O)n3c2CCCCC3)CC1
2,731,COC(=O)c1ncn2c1C(=O)N(c1cc(C)ccc1C)C(C)(C(=O)NCc1ccccc1)C2 (configuration not stated)
3,758,O=C(NCC1CC1)C1CCN(C(=O)c2ncn3c2COC(c2ccc(Cl)cc2)C3)CC1 (configuration not stated)
4,629,CCn1c(=O)sc2cc(S(=O)(=O)N3CCC(C(=O)NCc4ccccn4)CC3)ccc21
5,1120,Cc1cccc(NC(=O)Cn2nc(N3CCCC(C)C3)c3ccccc3c2=O)c1C (configuration not stated)
6,1310,CC(C)n1c(=O)oc2cc(-c3noc(-c4ccc(C(F)(F)F)cc4)n3)ccc21
7,847,O=C(NC1CC1)[C@@H]1C[C@H](Oc2ccccc2)CN1C(=O)c1cc2ccccc2[nH]1
8,681,COc1ccc(CN(Cc2ccccc2)Cc2cc(=O)n3ccc(C)cc3n2)cc1
9,570,O=C(C1CCN(c2ccncc2)CC1)N1CCN(c2ncccn2)CC1
10,656,Cc1ccc(C)c(NC(=O)Cn2c(N3CCCC3)nc(C)cc2=O)c1
11,1000,CCc1cccc(NS(=O)(=O)c2ccc(-c3nnc(C4CCC4)o3)o2)c1
12,630,COc1ccc(-c2noc(-c3ccc(NCCN(C)C)nn3)n2)cc1
13,820,CNC(=O)N1CCCC(c2cccc(C(=O)NC3CCCCCC3)c2)C1 (configuration not stated)
14,596,CCN(CC)CCCNC(=O)c1cc2n(n1)CC(C)(C(=O)NCc1ccc(F)cc1)N(C)C2=O (configuration not stated)
15,578,O=C(NCCCN1CCCC1=O)C(=O)Nc1nccs1
16,1130,CC(C)n1c(=O)oc2cc(-c3noc(-c4cc(F)ccc4F)n3)ccc21
17,734,COCCN1CCCCc2cc(C(=O)NC3CCS(=O)(=O)C3)sc21 (configuration not stated)
18,664,CCn1cnc2cc(-c3noc(C4CC(=O)N(c5ccccc5)C4)n3)ccc21 (configuration not stated)
19,869,CN(Cc1ccco1)C(=O)c1ccc(NC(=O)C2CC2)cc1N1CCCCCC1
20,688,CCn1cc(CN2CCC(C(=O)NC3CCCCC3)CC2)c2cc(OC)ccc21
21,648,Cc1cn(C)nc1C(=O)N(CCN1CCOCC1)c1nc2c(C)ccc(C)c2s1
22,841,CC(C(=O)NCCc1c[nH]c2ccccc12)C1CCN(S(=O)(=O)c2cccs2)CC1 (configuration not stated)
23,667,COc1ccc(N2CCN(c3ncc4c(n3)CCN(Cc3ccccc3Cl)C4)CC2)cc1
24,1360,CCOC(=O)c1c(C)oc2nc(C)nc(Nc3ccc(OCC)cc3)c12
25,778,Cc1ccccc1NC(=O)C1(C)Oc2cccnc2N(C)C1=O (configuration not stated)
26,905,CCCCn1cnc2c(-c3ccccc3)cn(CC(=O)NC(C)C)c2c1=O
27,922,CCCn1cnc2c(-c3ccccc3)csc2c1=O

# Further lines, the compound ahead of its results:
row,Structure (SMILES),RP-LC retention time [s]
1,Cc1nc2cc(NS(=O)(=O)c3cccc4cccnc34)ccc2s1,753
2,Cc1ccc(CNC(=O)C2CCN(c3cn[nH]c(=O)c3)C2)o1 (configuration not stated),626
3,CC(=O)Nc1ccc(NC(=O)C2CC(=O)N(CCc3c[nH]c4ccc(F)cc34)C2)cc1 (configuration not stated),675
4,O=C(c1cn2ccccc2n1)N1CCN(c2ccccc2F)CC1,652
5,O=C(Cn1nc2nc(N3CCCC3)ccn2c1=O)NCCc1ccccc1,947
6,O=C1[C@H]2CN(Cc3ccccc3F)C[C@H]2C(=O)N1Cc1ccc2c(c1)OCO2,792
7,O=C(CCCS(=O)(=O)c1ccc(F)cc1)Nc1ncnc2sccc12,649
8,O=C(Cn1nc2c(SC3CCCCC3)nccn2c1=O)Nc1ccc(Br)cc1,1120
9,O=S(=O)(c1ccc2c(c1)CCC2)N1CC(c2nc(CCOCc3ccccc3)no2)C1,1140
10,O=C(Nc1ccc(F)cc1F)N1CCc2nc(-c3ccccc3)ncc2C1,881
11,Cc1cc(C(=O)NCCc2ccco2)c2c(=O)n(C)c(=O)n(C)c2n1,688
12,Cc1nc(-c2cc(S(=O)(=O)N3CCC(C(=O)NCc4ccco4)CC3)c(C)s2)no1,837
13,COc1ccc(N2CCN(c3nc(C(=O)NCC4CC4)cs3)CC2)cc1,915
14,CCNC(=O)NC1CCN(c2ccccc2)C1=O (configuration not stated),596
15,O=S(=O)(c1cccc(C(F)(F)F)c1)N1CCC2(CCN(c3cccnc3)C2)C1 (configuration not stated),702
16,COc1ccccc1NC(=O)N1CCN(Cc2nc3cc(Cl)ccc3o2)CC1,771
17,Cc1ccc(F)cc1NC(=O)Cn1nc2cc(-c3ccccn3)nc(C)n2c1=O,767
18,Cc1noc([C@@H]2CN(Cc3ccc(Cl)cc3F)C[C@H]2CO)n1,600
19,Fc1ccccc1CN1CCc2nc(N3CCOCC3)ncc2C1,590
20,CCOc1ccc(-c2cn3ccn(-c4cc(Cl)ccc4C)c(=O)c3n2)cc1,934

row,Structure (SMILES),RP-LC retention time [s]
1,CO[C@@H]1[C@H](OC(=O)NC(=O)CCl)CC[C@]2(CO2)[C@H]1[C@@]1(C)O[C@@H]1CC=C(C)C,692
2,COc1ccc(C)cc1NC1=NS(=O)(=O)c2ccccc21,852
3,CC(c1ccccc1)N1CC(=O)N(c2cccc(Cl)c2)[C@@H]2CS(=O)(=O)C[C@@H]21 (some centres not stated),894
4,COc1ccc(-c2nnc(CC(=O)NC3CC3)o2)cc1,640
5,CCC(C)NC(=O)c1c(O)c2cccnc2n(-c2ccc(OC)cc2)c1=O (configuration not stated),1140
6,O=C(NCCCn1ncccc1=O)c1coc(NC(=O)c2cnccn2)n1,554
7,CCn1cc(-c2nc(C)c(C(=O)Nc3ccc(C)cc3)s2)c2cccnc21,784
8,Cc1cccc(C)c1NS(=O)(=O)c1cc2c3c(c1)CCC(=O)N3CCC2,848
9,Cc1ccc(CNC(=O)C2(C)CN(S(C)(=O)=O)CC(=O)N2c2ccc(Cl)cc2)cc1 (configuration not stated),850
10,Cc1csc(C(=O)NCC(O)c2ccc(C(F)(F)F)cc2)c1 (configuration not stated),795
11,Cc1nn(CCCC(=O)N2CCN(c3ccccn3)CC2)c(=O)c2cc3occc3n12,589
12,CCNC(=O)C1CCN(c2nccc3sccc23)CC1,558
13,Cc1cccn2cc(-c3cccc(NS(=O)(=O)c4ccc(Br)cc4)c3)nc12,700
14,CN(C)S(=O)(=O)c1ccc(-c2nnc(C(=O)NCc3cccs3)o2)cc1,812
15,Cc1ccc(NC(=O)N2CCC3(CC2)N=C(c2ccccc2)C(=O)N3)cc1C,824
16,CN1CCCc2cc(C(=O)NCc3ccccc3F)sc21,915
17,COC(=O)c1ccc(CSc2nnc(CNC(=O)c3cccc([N+](=O)[O-])c3C)o2)o1,732
18,CC(C)NC(=O)Cn1cnc2nc(N3CCCC(C(=O)NC4CC4)C3)sc2c1=O (configuration not stated),608
19,CN1c2ccc(Cl)cc2C(=O)NC12CCN(C(=O)c1ccc(F)cc1)CC2,818
20,O=c1[nH]cc(S(=O)(=O)NC2CCCC2)c(=O)[nH]1,600
